Experimental data published in patent publication US9029337B2, “Modulation of factor 7 expression” (Isis Pharmaceuticals, Inc., priority 2007, dated 2015).
Strand notation (5' to 3'): a small letter for the sugar, then the base; units joined by * are phosphorothioate-linked, units joined directly phosphodiester-linked; [ ] holds rarer units or linkages, { } end groups; capitals alone tell only the bases. e = 2'-O-(2-methoxyethyl) (MOE); [5mC] = 5-methylcytosine; d = 2'-deoxy (DNA)

Test system: human Factor 7 mRNA
Test: Antisense inhibition of human Factor 7 mRNA in HepB3 cells, 50 nM antisense oligonucleotide, lipofectin
Assay type: cell-based
Conditions: Table 1, 50 nM, lipofectin, approximately 24 hours, relative to untreated control cells
How it was run: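 After transfection of wells containing 4,000 cells, treatment ran for approximately 24 h. RIBOGREEN®-measured total RNA served for normalisation, and inhibition was calculated as a percentage of untreated control.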

| Substance | % Inhibition |
| --- | --- |
| 407943 (antisense eG*e[5mC]*eA*eG*eG*d[5mC]*dA*d[5mC]*d[5mC]*dA*d[5mC]*dA*dG*dG*dT*eG*eT*eG*e[5mC]*eG) [compound 407943] | 34% |
| 407610 (antisense eA*eG*eG*eG*eA*dG*dG*d[5mC]*dA*dG*dA*dA*dG*d[5mC]*dA*eG*eA*eT*eA*eT) [compound 407610] | 31% |
| 407886 (antisense eG*e[5mC]*eA*eG*eA*dG*dG*dA*dG*d[5mC]*d[5mC]*dT*dG*dA*dG*eG*eG*e[5mC]*e[5mC]*eT) [compound 407886] | 72% |
| 407907 (antisense eA*eA*eT*eG*eA*dG*dA*dA*dG*d[5mC]*dG*d[5mC]*dA*d[5mC]*dG*eA*eA*eG*eG*e[5mC]) [compound 407907] | 35% |
| 407928 (antisense e[5mC]*eT*eT*eG*eG*d[5mC]*dT*dG*dA*dA*dG*dG*dG*dA*dG*eG*eT*eA*eA*eG) [compound 407928] | 55% |
| 407633 (antisense eG*e[5mC]*eA*eG*eG*d[5mC]*dA*dG*dT*d[5mC]*d[5mC]*dT*dG*dG*dG*eT*e[5mC]*eA*eT*e[5mC]) [compound 407633] | 71% |
| 407642 (antisense e[5mC]*eA*eG*e[5mC]*eA*dG*d[5mC]*d[5mC]*dT*dG*dA*dG*dG*d[5mC]*d[5mC]*eA*eG*e[5mC]*eA*eG) [compound 407642] | 78% |
| 403090 (antisense eA*eG*eT*e[5mC]*e[5mC]*dT*dG*dG*dG*dT*d[5mC]*dA*dT*d[5mC]*dA*eG*e[5mC]*e[5mC]*eG*eG) [compound 403090] | 69% |

Same assay, conditions: Table 6, 50 nM, lipofectin, approximately 24 hours

| Substance | % Inhibition |
| --- | --- |
| 422123 (antisense eG*eA*eG*e[5mC]*eG*d[5mC]*dG*dG*dA*dA*dG*dA*dA*dG*dG*eG*eA*e[5mC]*eG*eG) [compound 422123] | 16% |
| 422118 (antisense e[5mC]*eG*eG*eA*eA*dG*dA*dA*dG*dG*dG*dA*d[5mC]*dG*dG*eA*eA*eG*eG*eT) [compound 422118] | 15% |
| 422195 (antisense eA*e[5mC]*eT*dG*dA*dG*d[5mC]*dG*d[5mC]*dG*dG*dA*dA*dG*dA*dA*dG*eG*eG*eA) [compound 422195] | 37% |

Same assay, conditions: gapmers targeted to nucleobases 4868 to 4899 of SEQ ID NO: 1, Table 8

| Substance | % Inhibition of human Factor 7 mRNA levels |
| --- | --- |
| 416509 (antisense eA*eG*eG*eA*eG*d[5mC]*d[5mC]*d[5mC]*dG*dA*dG*dT*dT*d[5mC]*dT*eG*e[5mC]*eA*eG*eG) [compound 416509] | 60% |
| 422144 (antisense e[5mC]*e[5mC]*e[5mC]*eG*eA*dG*dT*dT*d[5mC]*dT*dG*d[5mC]*dA*dG*dG*eA*eG*e[5mC]*eG*eG) [compound 422144] | 58% |
| 422220 (antisense e[5mC]*e[5mC]*e[5mC]*dG*dA*dG*dT*dT*d[5mC]*dT*dG*d[5mC]*dA*dG*dG*dA*dG*e[5mC]*eG*eG) [compound 422220] | 59% |

Same assay, conditions: lipofectin, 50 nM antisense oligonucleotide, approximately 24 hours, Factor 7 mRNA by real-time RT-PCR (RTS 2927), relative to untreated control

| Substance | % Inhibition |
| --- | --- |
| 416462 (antisense eG*eG*e[5mC]*eA*eG*dT*d[5mC]*d[5mC]*dT*dG*dG*dG*dT*d[5mC]*dA*eT*e[5mC]*eA*eG*e[5mC]) [compound 416462] | 60% |
| 416509 (antisense eA*eG*eG*eA*eG*d[5mC]*d[5mC]*d[5mC]*dG*dA*dG*dT*dT*d[5mC]*dT*eG*e[5mC]*eA*eG*eG) [compound 416509] | 56% |
| 416540 (antisense eG*eG*eA*e[5mC]*eT*dG*dG*dT*dG*dT*d[5mC]*dA*dT*d[5mC]*dT*eG*eG*eG*eA*e[5mC]) [compound 416540] | 38% |
| 416439 (antisense eG*eT*e[5mC]*e[5mC]*eT*dT*dG*d[5mC]*dA*dG*dG*dA*dG*d[5mC]*d[5mC]*e[5mC]*e[5mC]*e[5mC]*eA*eT) [compound 416439] | 56% |
| 416475 (antisense e[5mC]*eT*e[5mC]*eA*eG*d[5mC]*dT*dG*dG*dG*d[5mC]*dT*dG*dT*d[5mC]*eT*eG*e[5mC]*e[5mC]*eT) [compound 416475] | 70% |
| 416541 (antisense e[5mC]*e[5mC]*eA*e[5mC]*e[5mC]*d[5mC]*dT*dT*dG*dG*dT*dG*d[5mC]*d[5mC]*d[5mC]*eA*eG*eA*eT*e[5mC]) [compound 416541] | 53% |
| 416428 (antisense e[5mC]*eT*eG*eG*eG*dT*dT*dA*d[5mC]*dG*dA*dA*dG*dA*d[5mC]*eT*eG*e[5mC]*eA*eG) [compound 416428] | 11% |
| 416488 (antisense e[5mC]*eA*eG*eG*eT*d[5mC]*d[5mC]*dT*d[5mC]*d[5mC]*d[5mC]*dA*d[5mC]*dT*dG*e[5mC]*eA*eG*e[5mC]*e[5mC]) [compound 416488] | 41% |
| 416493 (antisense eT*e[5mC]*eT*eT*eG*dG*dG*dT*dG*dT*dG*dG*dA*dT*dG*eT*eA*eA*eA*eT) [compound 416493] | 0% |
| 416429 (antisense eA*e[5mC]*eG*e[5mC]*e[5mC]*dG*dT*dG*dG*dG*d[5mC]*dT*dT*d[5mC]*d[5mC]*eT*e[5mC]*e[5mC]*eT*eG) [compound 416429] | 47% |
| 416568 (antisense e[5mC]*eA*eT*eT*eG*dT*dG*d[5mC]*d[5mC]*dT*dG*dG*d[5mC]*dA*d[5mC]*eA*e[5mC]*eA*eG*eG) [compound 416568] | 14% |
| 416564 (antisense eG*e[5mC]*e[5mC]*eA*e[5mC]*dT*d[5mC]*dA*d[5mC]*dA*dG*dA*dA*dA*dG*e[5mC]*eT*eG*eG*eA) [compound 416564] | 0% |
| 416532 (antisense eG*eG*eA*e[5mC]*e[5mC]*d[5mC]*dA*dG*dA*dT*dG*dA*d[5mC]*d[5mC]*dA*eG*e[5mC]*eA*eG*eG) [compound 416532] | 12% |
| 416505 (antisense eG*e[5mC]*eA*eG*eA*dT*dT*dT*dG*d[5mC]*dA*dT*d[5mC]*dA*dG*eA*eA*eA*eA*eG) [compound 416505] | 45% |

Same assay, conditions: oligonucleotides targeted to nucleobases 11830 to 11869 of SEQ ID NO: 1 (Table 9)

| Substance | % Inhibition (human Factor 7 mRNA levels) |
| --- | --- |
| 422163 (antisense eA*eG*eA*d[5mC]*dA*dA*dT*dG*dG*dT*d[5mC]*dA*dG*dG*dG*d[5mC]*dT*eG*eG*eT) [compound 422163] | 56% |
| 422100 (antisense eG*eA*eG*eG*eA*dG*dA*d[5mC]*dA*dA*dT*dG*dG*dT*d[5mC]*eA*eG*eG*eG*e[5mC]) [compound 422100] | 59% |
| 422160 (antisense e[5mC]*eA*eA*dT*dG*dG*dT*d[5mC]*dA*dG*dG*dG*d[5mC]*dT*dG*dG*dT*eT*eT*eT) [compound 422160] | 42% |
| 422088 (antisense eT*e[5mC]*eA*eG*eG*dG*d[5mC]*dT*dG*dG*dT*dT*dT*dT*dG*eG*eA*eG*eG*eA) [compound 422088] | 8% |
| 422102 (antisense e[5mC]*eT*eG*eA*eG*dG*dA*dG*dA*d[5mC]*dA*dA*dT*dG*dG*eT*e[5mC]*eA*eG*eG) [compound 422102] | 62% |

Same assay, conditions: oligonucleotides targeted to nucleobases 13760 to 13789 of SEQ ID NO: 1 (Table 10)

| Substance | % Inhibition (human Factor 7 mRNA levels) |
| --- | --- |
| 422184 (antisense eT*eG*e[5mC]*dG*d[5mC]*d[5mC]*dA*d[5mC]*d[5mC]*d[5mC]*dG*d[5mC]*d[5mC]*dG*dG*d[5mC]*dT*e[5mC]*eT*eG) [compound 422184] | 55% |

Same assay, conditions: oligonucleotides targeted to nucleobases 14707 to 14732 of SEQ ID NO: 1 (Table 11)

| Substance | % Inhibition (human Factor 7 mRNA levels) |
| --- | --- |
| 422282 (antisense eA*eG*d[5mC]*dA*dG*d[5mC]*d[5mC]*dT*dG*dA*dG*dG*d[5mC]*d[5mC]*dA*eG*e[5mC]*eA*eG*eA) [compound 422282] | 48% |
| 407642 (antisense e[5mC]*eA*eG*e[5mC]*eA*dG*d[5mC]*d[5mC]*dT*dG*dA*dG*dG*d[5mC]*d[5mC]*eA*eG*e[5mC]*eA*eG) [compound 407642] | 63% |

Same assay, conditions: oligonucleotides targeted to nucleobases 15098 to 15122 of SEQ ID NO: 1 (Table 12)

| Substance | % Inhibition (human Factor 7 mRNA levels) |
| --- | --- |
| 422210 (antisense e[5mC]*eA*eG*d[5mC]*dA*d[5mC]*dA*d[5mC]*dA*dT*dG*dG*dA*dG*dT*d[5mC]*dA*eG*e[5mC]*eA) [compound 422210] | 25% |
